Data: Sander's compilation of Henry's law constants (doi:10.1016/s0021-9673(00)91567-x)

Assay: Henry solubility constant Hcp at 298.15 K (mol/(m3 Pa))
Conditions: reference: Przyjazny et al. (1983)
With `CCCCS` [1-butanethiol] the “Henry solubility constant Hcp” value was 0.0022. For `CCCS` [1-propanethiol], the “Henry solubility constant Hcp” value was 0.0024. For `Cc1cccs1` [2-methylthiophene], the “Henry solubility constant Hcp” value was 0.0041. For `CC(C)SC(C)C` [di-(2-propyl)-sulfide], the “Henry solubility constant Hcp” value was 0.003. For `CCSSCC` [diethyl disulfide], the “Henry solubility constant Hcp” value was 0.0063. For `CCSCC` [diethyl sulfide], the “Henry solubility constant Hcp” value was 0.0054. For `CSC` [dimethyl sulfide], the “Henry solubility constant Hcp” value was 0.0056. In the case of `CCCSCCC` [dipropyl sulfide], the “Henry solubility constant Hcp” value was 0.0033. With `CCS` [ethanethiol] the “Henry solubility constant Hcp” value was 0.0028. With `CS` [methanethiol] the “Henry solubility constant Hcp” value was 0.0039. For `c1ccsc1` [thiophene], the “Henry solubility constant Hcp” value was 0.0044.
